The nature of the series: Two-component Cys-Cys stapling with divinyltriazine (DVT): double thia-Michael addition on recombinant StrepII-GB1-peptide-His8 fusions, stepwise linker addition (pseudo-dilution), DTT quench. The following applies: the molecule shown is the open-chain precursor, PBS + 200 mM imidazole (2 mM linker stock in DMSO added stepwise), 0.02 mM, scale: 1 = stapled product confirmed by ESI-MS as.

For “StrepII-GB1-...GSDP-VNSSAFSGFSTASGKKLNVSTEALQKACKLFSDIECIS-DPGS...-His8 (free Cys thiols, + DVT)”, under “36-membered ring”, the ring closure, product found was determined as 1.
In the case of “StrepII-GB1-...GSDP-VNSSAFSGFSTASGKKLNVSCEALQKACKLFSDIENIS-DPGS...-His8 (free Cys thiols, + DVT)”, the ring closure, product found (33-membered ring) was found to be 1.
As to “StrepII-GB1-...GSDP-SSACSGFSTASGKKLNVSTEACQKAVKLFSDIENIS-DPGS...-His8 (free Cys thiols, + DVT)”, where the note is “66-membered ring”, the ring closure, product found was 1.
For “StrepII-GB1-...GSDP-SCFSTASGKKLNVSCEALQKAVKLFSDIENIS-DPGS...-His8 (free Cys thiols, + DVT)”, the ring closure, product found (51-membered ring) amounted to 1.
For “StrepII-GB1-...GSDP-ACGFSTASGKKLNVSCEALQKAVKLFSDIENIS-DPGS...-His8 (free Cys thiols, + DVT)”, where the note is “54-membered ring”, the ring closure, product found amounted to 1.

The values above are taken from article PMC10699557, “A recombinant approach for stapled peptide discovery yields inhibitors of the RAD51 recombinase” (Chemical Science, 2023).
